Patent publication US12440479B2, “Prevention or treatment of chronic organ injury” (GEORG-AUGUST-UNIVERSITAET GOETTINGEN, STIFTUNG …, priority 2018, dated 2025)

Columns and labels:
murine TECs [1] = experiment: Murine TEC cultures (MCT): mRNA expression (qRT-PCR), pSmad1/5/8 immunostaining, proliferation; type: cell-based, mouse
Method: HK-2 (ATTC, Manassas, USA) are immortalized proximal tubule epithelial cells derived from normal adult human kidney. The murine proximal tubular epithelial cell line MCT was generated from the renal cortex of SJL mice (75). All cells were routinely tested negative for the presence of mycoplasma contamination. None of the cell lines used in this manuscript is listed in the ICLAC and NCBI Biosample database of misidentified cell lines. Cells were cultured in Dulbecco's modified Eagle's (DMEM, Gibco, Carlsbad, USA) medium supplemented with 100 µg/mL penicillin, 100 µg/mL streptomycin and 10% heat-inactivated fetal bovine serum (FBS, Sigma, St. Louis, USA) at 37° C. in 5% CO2. For RNA extractions, cells were seeded in 6 well culture plates at 10^5 cells per well in antibiotic free standard growth medium. […] Cells were harvested for further analysis 6 hours after incubation. To examine de novo protein syntheses, cells were again plated in 6 well culture plates as initially described and then pre-treated with the translation blocker Cycloheximide (CHX, 10 μg/mL, Sigma, St. Louis, USA). After one hour of incubation, 200 pM FK506 was applied for additional 6 hours. One night before transfection, MCT cells were seeded in 6 well culture plates at a concentration of 1.5-2×10^5 per well in antibiotic-free DMEM (Gibco, Carlsbad, USA) supplemented with 10% heat-inactivated fetal bovine serum (FBS, Sigma, St. Louis, USA). For knockdown experiments, 60 pmol siRNA (Santa Cruz Biotechnology, Dallas, USA) or scrambled siRNA (scrRNA, Santa Cruz Biotechnology, Santa Cruz, USA) was transfected, for over-expression experiments, 2 μg plasmid DNA was transfected using Lipofectamine 2000 reagent (Invitrogen, Carlsbad, USA). After 4 hours of incubation, transfection medium was replaced by antibiotic-free medium and cells recovered overnight. For stimulation experiments, cells were stimulated the day after with […] FK506 (Abcam Biochemicals, Cambridge, UK) dissolved in DMSO and harvested after 6 hours of incubation for RNA and protein analysis. For SYBR-based real-time PCR, cDNA synthesis was performed by using DNase I digestion (Invitrogen, Carlsbad, USA) and SuperScript II Reverse Transcriptase (Invitrogen, Carlsbad, USA) according to the manufacturer's protocol. 1 μL of reverse-transcribed cDNA was added to the reaction mixture containing the primer pair (200 nmol/L each) and diluted 2× Fast SYBR Green Master Mix (Applied Biosystems, Carlsbad, USA) in a final volume of 20 μL for each PCR reaction. The real-time PCR reactions were performed in a 96-well reaction plate using the StepOne Plus Real-Time System (Applied Biosystems, Carlsbad, USA) and were done in triplicates. An initiation step at 95° C. for 20 seconds was followed by 40 cycles at 95° C. for 3 to seconds and 60° C. for 30 seconds, with one cycle of dissociation at 95° C. for 15 seconds, 60° C. for 60 seconds, and 95° C. for 15 seconds. The intercalation of SYBR Green dye and its fluorescent signal is directly proportional to the amount of amplified DNA and was transformed into the cycle threshold (Ct). For normalization, the Ct values of the housekeeping genes Gapdh and Actb were subtracted from the Ct values of the gene of interest to generate the dCt values. The relative expression levels were calculated using the equation 2^−ddCt.

ARNT/HIF1α, ARNT/AHR = experiment: Co-immunoprecipitation using antibodies to ARNT in cultured TECs; type: cell-based, mouse; conditions: cultured TECs in response to FK506 (200 pM), IP: Arnt
Method: CoIP was performed with Protein G Immunoprecipitation Kit (Roche, Basel, Switzerland). Protein A/G PLUS Agarose beads (Santa Cruz Biotechnology, Santa Cruz, USA) were used for the lysate pre-cleaning and pull-down. For each CoIP, 2×10^7 MCT cells have been used following the manufacturer's instructions. Yy1 (ab12132, Abcam Biochemicals, Cambridge, UK), Fkbp12 (ab2918, Abcam Biochemicals, Cambridge, UK), Arnt (3718, Cell Signaling, Danvers, USA), GFP (MA5-15256, Thermo Fisher Scientific, Waltham, USA) and myc-tag antibodies (2276, Cell Signaling, Danvers, USA) were used for immunoprecipitation, detection of co-immunoprecipitated Fkbp12 (ab12132, Abcam Biochemicals, Cambridge, UK), Hif1α ([MUT], Sigma, St. Louis, USA), Ahr (MA1-514, Thermo Fisher Scientific, Waltham, USA), GFP (MA5-15256, Thermo Fisher Scientific, Waltham, USA) and myc-tag (2276, Cell Signaling, Danvers, USA) was performed by immunoblotting.

[2] = tested on: proximal ALK3 promoter (CACGTG E-box motif); experiment: ALK3 ChIP-PCR after Arnt pull-down; type: cell-based, mouse; conditions: TECs upon exposure to FK506
Method: DNA and protein interaction was performed with the OneDay ChIP Kit (Diagenode, Seraing, Belgium) according to the manufacturer's instructions. 2×10^7 MCT cells have been used for each ChIP reaction. Cell lysates were sonicated using an ultrasonic processor S-4000 (Misonix, Farmingdale, USA). Immunoprecipitation was performed with a ChIP grade antibody against Yy1 (ab12132, Abcam Biochemicals, Cambridge, UK) and Arnt (3718, Cell Signaling, Danvers, USA). Enriched DNA was analyzed by qRT-PCR with EpiTect ChIP qPCR primers for genomic Arnt (Qiagen, Hilden, Germany), oligonucleotide sequences for genomic Alk3 are listed in Table 10.

TEC cultures = experiment: RT2 Profiler PCR arrays (transcription factor, hypoxia, drug metabolism) in TECs; type: cell-based
Method: To compare qPCR-validated cDNA samples after FK506 treatment and DMSO control, gene expression profiling was performed using commercially available plates (PAHS-075Z/PAMM-002Z/PAMM032Z, SABiosciences, Qiagen, Hilden, Germany). HK-2 cells were plated in 6 well culture plates as previously described and stimulated with 150 ng/mL FK506, MCT cells with 200 pM FK506. After 6 hours, cells were dissolved and RNA was isolated, digested and reverse transcripted. The 25 ng cDNA equivalent of total RNA was added to the reaction mixture containing diluted 2× RT^2 SYBR Green ROX qPCR Mastermix (Qiagen, Hilden, Germany) in a final volume of 25 μL for each well of the RT2 Profiler PCR. PCR reactions were performed under recommended thermal cycling conditions (10 min at 95° C., 15 s at 95° C., 1 min at 60° C. for 40 cycles). To verify PCR specificity, dissociation curve analysis was generated. Relative levels of mRNA expression were normalized in all the samples with expression levels of included housekeeping genes, and data analysis was done using an web-based analysis software provided by SABiosciences. Transcription factor binding sites within the ALK3 proximal promoter was performed 5000 basepairs relative to transcriptional start site using […] database (98).

murine TECs [3] = experiment: Murine TEC cultures (MCT): mRNA expression (qRT-PCR), pSmad1/5/8 immunostaining, proliferation; type: cell-based, mouse; conditions: cultured TECs, GPI-1046 10 μM

| SMILES | induction of ALK3 transcription (murine TECs [1]; TECs depleted for HIF1α (Hif1akd) or AHR (Ahrkd)) | mRNA expression levels of AR, ARNT, CEBPB, CREB1, GATA3, MAX (qRT-PCR) (murine TECs [1]; TECs upon exposure to FK506) | ALK3 transcription or nuclear pSmad1/5/8 accumulation (murine TECs [1]; TECs with ARNT depleted (Arntkd)) | ALK3 transcription and canonical BMP signaling responses (nuclear pSmad1/5/8) (murine TECs [1]; TECs with Cycloheximide (CHX, 10 μg/mL)) | ARNT mRNA and protein levels (murine TECs [1]; TECs with FKBP12 or YY1 depletion, FK506 supplemented) | ALK3 transcription and BMP signaling responses (murine TECs [1]; TECs with YY1 depleted (Yy1kd), FK506 supplemented) | ARNT transcription (murine TECs [1]; cultured TECs, FK506 added to culture media) | pSmad1/5/8 (murine TECs [1]; murine TECs) | ARNT/HIF1α or ARNT/AHR interaction (ARNT/HIF1α, ARNT/AHR) | ARNT binding to CACGTG motif within the proximal ALK3 promoter [2] | induction of transcriptional factors AR, ARNT, CEPB, CREB1, GATA3 and MAX (array) (TEC cultures; TEC cultures upon FK506 exposure) | pathways involved in hypoxic signaling or drug metabolism (mRNA expression arrays) (TEC cultures; TECs exposed to FK506) | canonical BMP signaling responses (murine TECs [3]) | transcriptional induction of ARNT and ALK3 mRNA expression levels (murine TECs [3]) |
| --- | --- | --- | --- | --- | --- | --- | --- | --- | --- | --- | --- | --- | --- | --- |
| C=CC[C@@H]1/C=C(\C)C[C@H](C)C[C@H](OC)[C@H]2O[C@@](O)(C(=O)C(=O)N3CCCC[C@H]3C(=O)O[C@H](/C(C)=C/[C@@H]3CC[C@@H](O)[C@H](OC)C3)[C@H](C)[C@@H](O)CC1=O)[C@H](C)C[C@@H]2OC [FK506, tacrolimus] | preserved effectiveness | increased | failed to induce | failed to induce | did not additionally induce | did not additionally induce | transcriptional ARNT induction | accumulation of pSmad1/5/8 | did not provide evidence | significantly increased | at least 2 fold | did not markedly induce | – | – |
| CCC(C)(C)C(=O)C(=O)N1CCC[C@H]1C(=O)OCCCc1cccnc1 [GPI-1046, 3-(3-pyridyl)-1-propyl-(2S)-1-(3,3-dimethyl-1,2-dioxopentyl)-2-pyrrolidinedine carboxylate] | – | – | – | – | – | – | – | – | – | – | – | – | activation of canonical BMP signaling responses | equally effective |
